Assay results reported in patent US20250197403A1, “HETEROARYL COMPOUNDS FOR TREATMENT OF COMPLEMENT FACTOR D MEDIATED DISORDERS” (Achillion Pharmaceuticals, Inc., priority 2020, published 2025).

Molecular target: Human Factor D (Homo sapiens (Human), UniProt P00746)
Assay: Human Factor D Assay
Type: biochemical
Conditions: Human Factor D 80 nM, substrate Z-L-Lys-SBzl, assay according to Example 3
Procedure: The assay according to Example 3 was used to determine the IC50's of the compounds. Other standard factor D inhibition assays are also available.
Human Factor D (purified from human serum, Complement Technology, Inc.) at 80 nM final concentration is incubated with test compound at various concentrations for 5 min at room temperature in 50 mM Tris, 1M NaCl, pH 7.5. A synthetic substrate Z-L-Lys-SBzl and DTNB (Ellman's reagent) are added to final concentrations of 100 μM each. Absorbance at 405 nm (A405) is recorded at 30 second intervals for 30 min using a microplate spectrophotometer. IC50 values are calculated by nonlinear regression of complement Factor D reaction rates as a function of test compound concentration.

Sequence of Human Factor D (P00746 26-253): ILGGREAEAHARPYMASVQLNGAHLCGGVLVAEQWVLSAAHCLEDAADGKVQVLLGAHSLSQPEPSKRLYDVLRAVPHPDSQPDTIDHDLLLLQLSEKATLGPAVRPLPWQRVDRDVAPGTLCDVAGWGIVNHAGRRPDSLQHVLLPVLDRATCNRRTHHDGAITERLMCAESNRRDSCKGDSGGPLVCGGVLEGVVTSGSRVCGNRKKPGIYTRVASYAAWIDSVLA

SMILES | IC50 [µM]
COCc1ccc(C(F)(F)F)nc1NC(=O)[C@@H]1C[C@@]2(C)C[C@H]2N1C(=O)Cn1cc(C(C)=O)c2cc(-c3cnc(C)nc3)nc(C)c21 [Compound 41, (1R,3S,5R)-2-(2-(3-acetyl-7-methyl-5-(2-methylpyr-imidin-5-yl)-1H-pyrrolo [2,3-c]pyridin-1-yl)acetyl)-N-(3-(methoxymethyl)-6-(trifluoromethyl)pyridin-2-yl)-5-methyl-2-azabicyclo [3.1.0]hexane-3-carbox-amide] | < 1
CC(=O)c1cn(CC(=O)N2C[C@H](F)C[C@H]2C(=O)Nc2ccn(CC(F)(F)F)n2)c2ccc(-c3cnc4cc(C)nn4c3)cc12 [Compound 67, (2S,4R)-1-(2-(3-acetyl-5-(2-methylpyrazolo[1,5-a]pyrimidin-6-yl)-1H-indol-1-yl)acetyl)-4-fluoro-N-(1-(2,2,2-trifluoroethyl)-1H-pyrazol-3-yl)pyrrolidine-2-carboxamide] | < 1
CC(=O)c1cn(CC(=O)N2[C@H](C(=O)Nc3nc(C(F)(F)F)ccc3Cl)C[C@@]3(C)C[C@@H]23)c2c(C)nc(-c3cnc4cc(C)nn4c3)cc12 [Compound 24, (1R,3S,5R)-2-(2-(3-acetyl-7-methyl-5-(2-methylpyr-azolo[1,5-a]pyrimidin-6-yl)-1H-pyrrolo[2,3-c]pyr-idin-1-yl)acetyl)-N-(3-chloro-6-(trifluoromethyl)-pyridin-2-yl)-5-methyl-2-azabicyclo[3.1.0]hexane-3-carboxamide] | < 1
CC(=O)c1cn(CC(=O)N2C[C@@](F)(CF)CC2C(=O)Nc2nc(C(F)(F)F)ccc2C#N)c2c(C)nc(-c3cnc4cc(C)nn4c3)cc12 (stereo partly drawn) [Compound 33, (4R)-1-(2-(3-acetyl-7-methyl-5-(2-methylpyr-azolo[1,5-a]pyrimidin-6-yl)-1H-pyrrolo[2,3-c]pyr-idin-1-yl)acetyl)-N-(3-cyano-6-(trifluoromethyl)-pyridin-2-yl)-4-fluoro-4-(fluoromethyl)pyrrolidine-2-carboxamide] | < 1
CC(=O)c1cn(CC(=O)N2[C@H](C(=O)Nc3nc(C(F)(F)F)ccc3C)C[C@@]3(C)C[C@@H]23)c2c(C)c(F)c(-c3cnc4cc(C)nn4c3)cc12 [Compound 49, (1R,3S,5R)-2-(2-(3-acetyl-6-fluoro-7-methyl-5-(2-methylpyrazolo[1,5-a]pyr-imidin-6-yl)-1H-indol-1-yl)acetyl)-5-methyl-N-(3-methyl-6-(trifluorometh-yl)pyridin-2-yl)-2-azabi-cyclo[3.1.0]hexane-3-car-boxamide] | < 1
CC(=O)c1cn(CC(=O)N2[C@H](C(=O)N[C@@H](C)C(F)=C(C)C)C[C@@]3(C)C[C@@H]23)c2c(C)nc(-c3cnc4cc(C)nn4c3)cc12 [Compound 32, (1R,3S,5R)-2-(2-(3-acetyl-7-methyl-5-(2-methylpyr-azolo[1,5-a]pyrimidin-6-yl)-1H-pyrrolo[2,3-c]pyr-idin-1-yl)acetyl)-N-((S)-3-fluoro-4-methylpent-3-en-2-yl)-5-methyl-2-azabi-cyclo[3.1.0]hexane-3-car-boxamide] | < 1
CC(=O)c1nn(CC(=O)N(C)[C@@H](C)C(=O)Nc2nc(Br)ccc2C)c2cc3c(cc12)-c1cnc(C)nc1CC=C3 [Compound 109, (S)-2-(2-(11-acetyl-3-methylpyrimido[4′,5′:6,7]cyclohepta[1,2-f]indazol-9(5H)-yl)-N-methylacetamido)-N-(6-bromo-3-methylpyridin-2-yl)propanamide] | < 1
CC(=O)c1cn(CC(=O)N2C[C@H](F)C[C@H]2C(=O)N[C@@H](C)C(F)=C(C)C)c2c(C)cc(-c3cnc4cc(C)nn4c3)cc12 [Compound 37, (2S,4R)-1-(2-(3-acetyl-7-methyl-5-(2-methylpyr-azolo[1,5-a]pyrimidin-6-yl)-1H-indol-1-yl)acetyl)-4-fluoro-N-((S)-3-fluoro-4-methylpent-3-en-2-yl)pyr-rolidine-2-carboxamide] | < 1
CC(=O)c1cn(CC(=O)N2[C@H](C(=O)Nc3nc(C(F)(F)F)ccc3C)C[C@@]3(C)C[C@@H]23)c2c(C)nc(-c3ccc4nc(C)nn4c3)cc12 [Compound 56, (1R,3S,5R)-2-(2-(3-acetyl-7-methyl-5-(2-methyl-[1,2,4]triazolo[1,5-a]pyr-idin-6-yl)-1H-pyrrolo[2,3-c]pyridin-1-yl)acetyl)-5-methyl-N-(3-methyl-6-(trifluoromethyl)pyridin-2-yl)-2-azabicyclo[3.1.0] hexane-3-carboxamide] | < 1
CC(=O)c1cn(CC(=O)N2[C@H](C(=O)Nc3nc(Br)ccc3C)C[C@@]3(C)C[C@@H]23)c2cc3c(cc12)NC1(COC1)CO3 [Compound 20, (1R,3S,5R)-2-(2-(8′-acetyl-1′H-spiro[oxetane-3,2′-[1,4]oxazino[3,2-f]indol]-6′(3′H)-yl)acetyl)-N-(6-bromo-3-methylpyridin-2-yl)-5-methyl-2-azabicyclo [3.1.0]hexane-3-carbox-amide] | < 1
CC(=O)c1cn(CC(=O)N2[C@H](C(=O)N[C@@H](C)C(F)=C(C)C)C[C@@]3(C)C[C@@H]23)c2c(C)cc(-c3cnc4cc(C)nn4c3)cc12 [Compound 30, (1R,3S,5R)-2-(2-(3-acetyl-7-methyl-5-(2-methylpyr-azolo[1,5-a]pyrimidin-6-yl)-1H-indol-1-yl)acetyl)-N-((S)-3-fluoro-4-methyl-pent-3-en-2-yl)-5-methyl-2-azabicyclo[3.1.0]hexane-3-carboxamide] | < 1
CC(=O)c1cn(CC(=O)N2[C@H](C(=O)N[C@@H](C)C(F)=C(C)C)C[C@@]3(C)C[C@@H]23)c2c(C)nc(-c3cnc(C)nc3)cc12 [Compound 39, (1R,3S,5R)-2-(2-(3-acetyl-7-methyl-5-(2-methylpyr-imidin-5-yl)-1H-pyrrolo [2,3-c]pyridin-1-yl)acetyl)-N-((S)-3-fluoro-4-methyl-pent-3-en-2-yl)-5-methyl-2-azabicyclo[3.1.0]hexane-3-carboxamide] | < 1
CC(=O)c1nn(CC(=O)N2[C@H](C(=O)Nc3nc(Br)ccc3C)C[C@@]3(C)C[C@@H]23)c2cc3c(cc12)-c1cnc(C)nc1C=CC3 [Compound 69, (1R,3S,5R)-2-(2-(11-acet-yl-3-methylpyrimido [4′,5′:6,7]cyclohepta[1,2-f]indazol-9(7H)-yl)acetyl)-N-(6-bromo-3-methylpyr-idin-2-yl)-5-methyl-2-aza-bicyclo[3.1.0]hexane-3-carboxamide] | < 1
CC(=O)c1cn(CC(=O)N2C[C@H]3C[C@H]3[C@H]2C(=O)Nc2nc(C(F)(F)F)ccc2Cl)c2c(C)cc(-c3cnc4cc(C)nn4c3)cc12 [Compound 6, (1R,2S,5S)-3-(2-(3-acetyl-7-methyl-5-(2-methylpyr-azolo[1,5-a]pyrimidin-6-yl)-1H-indol-1-yl)acetyl)-N-(3-chloro-6-(trifluoro-methyl)pyridin-2-yl)-3-azabicyclo[3.1.0]hexane-2-carboxamide] | < 1
[2H]C([2H])([2H])OC([2H])([2H])c1ccc(C(F)(F)F)nc1NC(=O)[C@@H]1C[C@@]2(C)C[C@H]2N1C(=O)Cn1cc(C(C)=O)c2cc(-c3cnc4cc(C)nn4c3)cc(C)c21 [Compound 80, (1R,3S,5R)-2-(2-(3-acetyl-7-methyl-5-(2-methylpyr-azolo[1,5-a]pyrimidin-6-yl)-1H-indol-1-yl)acetyl)-N-(3-((methoxy-d3)meth-yl-d2)-6-(trifluoromethyl)-pyridin-2-yl)-5-methyl-2-azabicyclo[3.1.0]hexane-3-carboxamide] | < 1
CC(=O)c1cn(CC(=O)N2C[C@@](F)(CF)C[C@H]2C(=O)Nc2nc(C(F)(F)F)ccc2C)c2c(C)cc(-c3ccc4nc(C)nn4c3)cc12 [Compound 11, (2S,4R)-1-(2-(3-acetyl-7-methyl-5-(2-methyl-[1,2,4]triazolo[1,5-a]pyr-idin-6-yl)-1H-indol-1-yl)-acetyl)-4-fluoro-4-(fluoro-methyl)-N-(3-methyl-6-(trifluoromethyl)pyridin-2-yl)pyrrolidine-2-carbox-amide] | < 1
CC(=O)c1cn(CC(=O)N2[C@H](C(=O)Nc3cncc(C(F)(F)F)n3)C[C@@]3(C)C[C@@H]23)c2c(C)cc(-c3cnc(C)nc3)cc12 [Compound 45, (1R,3S,5R)-2-(2-(3-acetyl-7-methyl-5-(2-methylpyr-imidin-5-yl)-1H-indol-1-yl)acetyl)-5-methyl-N-(6-(trifluoromethyl)pyrazin-2-yl)-2-azabicyclo[3.1.0] hexane-3-carboxamide] | < 1
CC(=O)c1cn(CC(=O)N2[C@H](C(=O)Nc3ccn(CC(F)(F)F)n3)C[C@@]3(C)C[C@@H]23)c2c(C)cc(-c3cnc4cc(C)nn4c3)cc12 [Compound 64, (1R,3S,5R)-2-(2-(3-acetyl-7-methyl-5-(2-methylpyr-azolo[1,5-a]pyrimidin-6-yl)-1H-indol-1-yl)acetyl)-5-methyl-N-(1-(2,2,2-tri-fluoroethyl)-1H-pyrazol-3-yl)-2-azabicyclo[3.1.0] hexane-3-carboxamide] | < 1
[2H]C([2H])([2H])OCc1ccc(C(F)(F)F)nc1NC(=O)[C@@H]1C[C@@]2(C)C[C@H]2N1C(=O)Cn1cc(C(C)=O)c2cc(-c3ccc4nc(C)nn4c3)cc(C)c21 [Compound 81, (1R,3S,5R)-2-(2-(3-acetyl-7-methyl-5-(2-methyl-[1,2,4]triazolo[1,5-a]pyr-idin-6-yl)-1H-indol-1-yl)-acetyl)-N-(3-((methoxy-d3)methyl-d2)-6-(trifluoro-methyl)pyridin-2-yl)-5-methyl-2-azabicyclo[3.1.0] hexane-3-carboxamide] | < 1
CC(=O)c1cn(CC(=O)N2C[C@@](F)(CF)C[C@H]2C(=O)Nc2nc(C(F)(F)F)ccc2C)c2c(C)nc(-c3cnc4cc(C)nn4c3)cc12 [Compound 25, (2S,4R)-1-(2-(3-acetyl-7-methyl-5-(2-methylpyr-azolo[1,5-a]pyrimidin-6-yl)-1H-pyrrolo[2,3-c]pyr-idin-1-yl)acetyl)-4-fluoro-4-(fluoromethyl)-N-(3-methyl-6-(trifluorometh-yl)pyridin-2-yl)pyrroli-dine-2-carboxamide] | < 1
